Laboratory results published in the supplement of paper PMC10307832.

Compound: COc1cc(Nc2ncc3c(n2)-c2ccc(Cl)cc2C(c2c(F)cccc2OC)=NC3)ccc1C(=O)O [Alisertib] + CC(=O)Nc1cccc(-n2c(=O)n(C3CC3)c(=O)c3c(Nc4ccc(I)cc4F)n(C)c(=O)c(C)c32)c1 [Trametinib] (partner 0.02 µM)
Assay: relative viability (nuclei count vs DMSO), 5 days (fraction); higher = more cells survive
Outline: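 Nuclei were stained with Hoechst during a one-step fixation (final 0.05% Triton X-100, 1% formaldehyde, 1 ug/ml Hoechst) carried out 5 days after dosing, then counted on 4× images. The cells, lung cancer lines in 1536-well plates, had been dosed by pin tool the day after seeding with one drug alone or a fixed anchor-drug dose plus five library-drug doses (not always all listed) in √10 steps. Relative viability is the nuclei count in treated wells divided by that in vehicle wells, and each value is the median of duplicate plates.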

| Cell Line | relative viability (first compound 0.005 µM) | relative viability (first compound 0.01581 µM) | relative viability (first compound 0.05 µM) | relative viability (first compound 0.1581 µM) | relative viability (first compound 0.5 µM) |
| --- | --- | --- | --- | --- | --- |
| 201T | 0.732 | 0.707 | 0.707 | 0.679 | 0.278 |
| A-427 | 0.596 | 0.57 | 0.244 | 0.241 | 0.262 |
| BEN | 1.02 | 0.976 | 0.435 | 0.286 | 0.409 |
| CAL-12T | 0.321 | 0.261 | 0.155 | 0.154 | 0.227 |
| COR-L23 | 0.609 | 0.427 | 0.221 | 0.133 | 0.125 |
| COR-L 105 | 0.4 | 0.407 | 0.369 | 0.325 | 0.281 |
| ChaGo-K-1 | 0.772 | 0.795 | 0.213 | 0.191 | 0.159 |
| EKVX | 0.319 | 0.37 | 0.18 | 0.16 | 0.155 |
| EMC-BAC-2 | 0.839 | 0.681 | 0.439 | 0.347 | 0.304 |
| EPLC-272H | 0.258 | 0.278 | 0.275 | 0.179 | 0.158 |
| H3255 | 0.662 | 0.637 | 0.441 | 0.309 | 0.295 |
| HARA | 0.722 | 0.769 | 0.348 | 0.12 | 0.207 |
| HCC-15 | 0.356 | 0.286 | 0.175 | 0.122 | 0.113 |
| HCC-44 | 0.963 | 0.931 | 0.509 | 0.4 | 0.32 |
| HCC-78 | 0.67 | 0.646 | 0.263 | 0.236 | 0.259 |
| HCC-366 | 0.306 | 0.23 | 0.0254 | 0.0345 | 0.0398 |
| HCC-827 | 0.547 | 0.514 | 0.293 | 0.26 | 0.238 |
| HOP-62 | 0.398 | 0.337 | 0.274 | 0.223 | 0.174 |
| LC-2-ad | 0.826 | 0.698 | 0.517 | 0.353 | 0.191 |
| LCLC-97TM1 | 0.202 | 0.201 | 0.124 | 0.126 | 0.0987 |
| LCLC-103H | 0.669 | 0.69 | 0.345 | 0.359 | 0.437 |
| LK-2 | 0.746 | 0.677 | 0.522 | 0.25 | 0.183 |
| LOU-NH91 | 0.783 | 0.751 | 0.663 | 0.513 | 0.425 |
| LU99A | 0.507 | 0.473 | 0.181 | 0.212 | 0.195 |

| Cell Line | relative viability (first compound 0.005 µM) | relative viability (first compound 0.01581 µM) | relative viability (first compound 0.05 µM) | relative viability (first compound 0.1581 µM) | relative viability (first compound 0.5 µM) |
| --- | --- | --- | --- | --- | --- |
| LXF-289 | 0.586 | 0.628 | 0.265 | 0.192 | 0.152 |
| NCI-H23 | 0.318 | 0.222 | 0.199 | 0.169 | 0.148 |
| NCI-H322M | 0.456 | 0.495 | 0.403 | 0.472 | 0.381 |
| NCI-H358 | 0.123 | 0.138 | 0.0961 | 0.0877 | 0.0818 |
| NCI-H441 | 0.378 | 0.341 | 0.16 | 0.168 | 0.141 |
| NCI-H460 | 0.102 | 0.147 | 0.0441 | 0.0212 | 0.0263 |
| NCI-H520 | 0.499 | 0.429 | 0.35 | 0.232 | 0.213 |
| NCI-H596 | 0.816 | 0.787 | 0.776 | 0.542 | 0.327 |
| NCI-H647 | 0.358 | 0.493 | 0.228 | 0.159 | 0.113 |
| NCI-H650 | 0.829 | 0.684 | 0.44 | 0.229 | 0.208 |
| NCI-H661 | 0.514 | 0.547 | 0.442 | 0.341 | 0.338 |
| NCI-H727 | 0.308 | 0.392 | 0.355 | 0.341 | 0.353 |
| NCI-H838 | 0.432 | 0.49 | 0.269 | 0.146 | 0.129 |
| NCI-H1355 | 0.39 | 0.411 | 0.355 | 0.187 | 0.153 |
| NCI-H1395 | 1.04 | 0.922 | 0.85 | 0.481 | 0.38 |
| NCI-H1437 | 0.391 | 0.489 | 0.279 | 0.21 | 0.179 |
| NCI-H1648 | – | 0.42 | 0.27 | 0.229 | 0.25 |
| NCI-H1650 | 0.558 | 0.565 | 0.295 | 0.145 | 0.191 |
| NCI-H1651 | 0.799 | 0.654 | 0.52 | 0.258 | 0.154 |
| NCI-H1666 | 0.839 | 0.738 | 0.679 | 0.612 | 0.501 |
| NCI-H1734 | 0.678 | 0.73 | 0.381 | 0.238 | 0.163 |
| NCI-H1755 | 0.742 | 0.712 | 0.474 | 0.426 | 0.305 |
| NCI-H1792 | 0.413 | 0.43 | 0.291 | 0.0949 | 0.072 |
| NCI-H1793 | 0.373 | 0.285 | 0.192 | 0.207 | 0.188 |

| Cell Line | relative viability (first compound 0.005 µM) | relative viability (first compound 0.01581 µM) | relative viability (first compound 0.05 µM) | relative viability (first compound 0.1581 µM) | relative viability (first compound 0.5 µM) |
| --- | --- | --- | --- | --- | --- |
| NCI-H1915 | 0.303 | 0.303 | 0.241 | 0.201 | 0.138 |
| NCI-H1944 | 0.414 | 0.408 | 0.272 | 0.251 | 0.173 |
| NCI-H1975 | 0.303 | 0.33 | 0.195 | 0.241 | 0.169 |
| NCI-H1993 | 0.493 | 0.513 | 0.442 | 0.404 | 0.455 |
| NCI-H2009 | 0.272 | 0.28 | 0.287 | 0.136 | 0.138 |
| NCI-H2023 | 0.623 | 0.435 | 0.289 | 0.123 | 0.124 |
| NCI-H2085 | 0.505 | 0.496 | 0.264 | 0.183 | 0.246 |
| NCI-H2087 | 0.243 | 0.221 | 0.149 | 0.134 | 0.0971 |
| NCI-H2126 | 0.563 | 0.57 | 0.348 | 0.281 | 0.238 |
| NCI-H2170 | 0.871 | 0.842 | 0.401 | 0.407 | 0.17 |
| NCI-H2228 | 0.565 | 0.24 | 0.237 | 0.121 | 0.113 |
| NCI-H2342 | 0.758 | 0.809 | 0.483 | 0.481 | 0.443 |
| NCI-H2347 | 0.281 | 0.273 | 0.286 | 0.271 | 0.237 |
| NCI-H2405 | 0.614 | 0.559 | 0.575 | 0.418 | 0.217 |
| NCI-H3122 | 0.238 | 0.214 | 0.198 | 0.176 | 0.131 |
| PC-3 [JPC-3] | 0.669 | 0.649 | 0.591 | 0.526 | 0.493 |
| PC-14 | 0.757 | 0.56 | 0.385 | 0.234 | 0.0465 |
| RERF-LC-KJ | 0.872 | 0.819 | 0.357 | 0.301 | 0.198 |
| SK-LU-1 | 0.484 | 0.457 | 0.203 | 0.275 | 0.279 |
| SK-MES-1 | 0.525 | 0.556 | 0.603 | 0.468 | 0.183 |
| SW 1573 | 0.512 | 0.533 | 0.121 | 0.119 | 0.104 |
| UMC-11 | 0.344 | 0.246 | 0.15 | 0.148 | 0.185 |
